Reference: ChEMBL document CHEMBL3120136 (J Med Chem, 2014)
In brackets after ≈: the same amount, converted by molar mass.

How the values were obtained:
Hepatitis C virus = test: Antiviral activity against Hepatitis C virus infected in human HuH7 cells assessed as inhibition of HCV subgenomic replicon replication after 72 hrs by ELISA; type: functional, organism-based, Hepacivirus hominis, Huh-7; conditions: Hepatitis C virus, Huh-7, 72 h; read-out: EC50
[1] = Inhibition of Hepatitis C virus full-length NS3/4A protease assessed as quenched-fluorogenic RET-S1 substrate cleavage incubated for 10 mins prior to substrate addition by FRET analysis; parameters: species or system Hepacivirus hominis
[2] = (§1) Ratio of AUC (0 to 24 hrs) in liver to plasma in Sprague-Dawley rat at 30 mg/kg, po by HPLC-MS/MS analysis; type: ADME, organism-based; parameters: dose 30 mg/kg, route oral; conditions: Sprague-Dawley, liver and plasma, read-out: Ratio AUC
[3] = AUC (0 to 24 hrs) in Sprague-Dawley rat plasma at 30 mg/kg, po by HPLC-MS/MS analysis; type: ADME, organism-based; parameters: time < 24 hr, dose 30 mg/kg, route oral
[4] = AUC (0 to 24 hrs) in Sprague-Dawley rat liver at 30 mg/kg, po by HPLC-MS/MS analysis; type: ADME, organism-based; parameters: time < 24 hr, dose 30 mg/kg, route oral
[5] = Plasma clearance in rat assessed as extraction ratio; type: ADME, organism-based; conditions: read-out: ERH
[6] = Efflux ratio of permeability from basolateral to apical side over apical to basolateral side in human Caco2 cells; type: ADME, cell-based; conditions: Caco-2
[7] = Permeability from apical to basolateral side of human Caco2 cells; type: ADME, cell-based; conditions: Caco-2, read-out: permeability
[8] = Aqueous solubility of the compound at pH 6.5 by modified shake-flask method; type: physicochemical
[9] = Aqueous solubility of the compound at pH 7.4 by modified shake-flask method; type: physicochemical
[10] = Aqueous solubility of the compound at pH 1.2 by modified shake-flask method; type: physicochemical
[11] = Metabolic stability in dog hepatocytes assessed as extraction ratio at 1 uM; type: ADME, cell-based, Canis lupus familiaris, Hepatocyte; conditions: read-out: ERH
[12] = Metabolic stability in cynomolgus monkey hepatocytes assessed as extraction ratio at 1 uM; type: ADME, cell-based, Macaca fascicularis, Hepatocyte; conditions: read-out: ERH
[13] = Metabolic stability in human hepatocytes assessed as extraction ratio at 1 uM; type: ADME, cell-based, Hepatocyte; conditions: read-out: ERH
[14] = Metabolic stability in rat hepatocytes assessed as extraction ratio at 1 uM; type: ADME, cell-based, Hepatocyte; conditions: read-out: ERH
[15] = Lipophilicity, log D of the compound; type: physicochemical; conditions: octanol/water
Rattus norvegicus = test: Volume of distribution at steady state in Sprague-Dawley rat at 1 mg/kg, iv by HPLC-MS/MS analysis; conditions: in vivo
Liver = test: as §1; type: ADME, organism-based; parameters: dose 30 mg/kg, route oral; conditions: other tissue
[16] = Ratio of drug level in liver to plasma in Sprague-Dawley rat at 30 mg/kg, po by HPLC-MS/MS analysis; type: ADME, organism-based; parameters: dose 30 mg/kg, route oral; conditions: liver and plasma

EC50 (Hepatitis C virus)	IC50 [1]	Kp [2]	AUC(0-t) at 24 h [3]	AUC(0-t) at 24 h [4]	hepatic extraction ratio [5]	efflux ratio [6]	Papp A→B [7]	solubility thermodynamic [8]	solubility thermodynamic [9]	solubility thermodynamic [10]	hepatic extraction ratio at 1 µM [11]	hepatic extraction ratio at 1 µM [12]	hepatic extraction ratio at 1 µM [13]	hepatic extraction ratio at 1 µM [14]	logD [15]	Vdss (Rattus norvegicus)	Ratio AUC (Liver)	Kp [16]	SMILES
2 nM	1.2 nM	1.2	32900 ng·h/mL	40300 ng·h/mL	0.06	> 2	< 2 ×10⁻⁶ cm/s	702 µg/mL (≈ 983 µM)	> 1000 µg/mL	0.5 µg/mL (≈ 0.7 µM)	0.33	0.28	0.65	0.01	2.4	0.089 L/kg			CC(C)(C)OC(=O)N[C@H]1CCCCC/C=C\[C@@H]2C[C@@]2(C(=O)NS(=O)(=O)C2CC2)NC(=O)[C@@H]2C[C@@H](OC(=O)N3Cc4ccccc4C3)CN2C1=O
17.5 nM	2.2 nM		60 ng·h/mL	276000 ng·h/mL	> 1	> 2	< 2 ×10⁻⁶ cm/s	812 µg/mL (≈ 1120 µM)	> 1000 µg/mL	0.5 µg/mL (≈ 0.687 µM)	0.36	0.53	0.49	0.05	2.2	5.982 L/kg	4608	> 1000	CC(C)(C)OC(=O)N[C@H]1CCCCC/C=C\[C@@H]2C[C@@]2(C(=O)NS(=O)(=O)C2CC2)NC(=O)[C@@H]2C[C@@H](OC(=O)N3CCc4ccccc4C3)CN2C1=O
